Measured values published in US20190388437A1, “COMPOSITIONS AND METHODS FOR TREATING BONE AND JOINT INFECTIONS” (priority 2014, published 2019).
Converted amounts (≈) assume the structure as drawn. “And” between values parts separate entries of the source, which are not always exact repeats. Equal entries are not always repeated. Where two headings read alike, the source gives them in different places.

Columns and labels:
[1] = test system: methicillin-resistant S. aureus (MRSA) strain USA 300; type: cell-based, Staphylococcus aureus
Protocol: (§1) Pharmacodynamics of CEM-102 against Methicillin-Resistant Staphylococcus aureus Using In vitro Models. A hollow fiber model was used to evaluate CEM-102 resistance potential in methicillin-resistant S. aureus (MRSA) strain USA 300 (Network of Antimicrobial Resistance in Staphylococcus aureus (MRSA), Chantilly, Va.). USA 300 is a highly virulent strain of MRSA and is the most common community-associated MRSA isolate in the USA. MIC values were determined in accordance with Clinical and Laboratory Standards Institute (CLSI).
The hollow fiber model comprised a two-compartment hollow fiber model (Louie et al. Antimicrob Agents Chemother 52:2486-2496(2008)) consisting of a volume of 15 mL in the central compartment, with multiple ports for the removal of broth, delivery of antibiotics, and collection of bacterial and antimicrobial samples. […] All experiments were performed in duplicate.
Hollow fibers contain 15 ml of media was prepared and inoculated with 10^6 colony forming units (CFU)/mL USA 300 bacteria. One of three different dosing regimens of […] was then applied to the fibers: (1) […] q12h; (2) 1200 mg/ml×2, followed by […], q12h; (3) 1500 mg/ml×2, followed by […], q12h.

[2] = test system: S. pyogenes [SPYO]; test: Reference broth microdilution susceptibility testing, Canadian isolates; type: cell-based; details: Streptococcus pyogenes; all 15 isolates
From the text: (§2) To determine a contemporary susceptibility (S) spectrum pattern. 153 GP isolates (123 S. aureus, 15 coagulase-negative staphylococci [CoNS] and 15 S. pyogenes [SPYO]) were collected from 5 Canadian medical centers between 2001 and 2006.

[3] = test system: coagulase-negative staphylococci [CoNS]; test: as above; type: cell-based; details: 15 isolates
From the text: as §2

[4] = test system: S. aureus; test: as above; type: cell-based
From the text: as §2

[5] = cited from earlier work
[6] = test system: Gram-positive (GP) species; test: CLSI broth microdilution / agar dilution MIC, spectrum study; type: cell-based
Protocol: (§3) CLSI broth microdilution (BMD) and anaerobic agar dilution (AD) methods were performed. Modifications of standard test methods included adding 10% human serum, adjusting the medium pH to 5, 6, and 8, and synergy was assessed by the checkerboard method. Mutational rates to R were determined at 4×.

[7] = test system: Gram-negative (GN) species; test: as above; type: cell-based; details: all except E. brevis, M. catarrhalis, N. meningitidis
Protocol: as §3

[8] = in the blood; cited from earlier work
[9] = test system: S. aureus MRSA (Mec A genotype); test: Agar dilution MIC against resistant S. aureus; type: cell-based; details: Staphylococcus aureus
From the text: The in vitro activity of CEM-102 was compared with that of telithromycin, azithromycin, erythromycin, levofloxacin, linezolid, and doxycycline against a total of 145 resistant S. aureus by agar dilution procedures (CLSI, M7-A7, M100-S18). The tested strains included S. aureus MRSA (Mec A genotype; 100 isolates), macrolide-resistant (ermA, B, C genotype or MLSb-resistant; 25), and ciprofloxacin-resistant (gyrA and parC genotype; 20).

[10] = test system: S. aureus; details: cited from earlier work
[11] = test system: methicillin-resistant S. aureus (MRSA) strain USA 300; test: CLSI MIC against MRSA strain USA 300; type: cell-based; details: Staphylococcus aureus
Protocol: as §1

[12] = test system: Group A beta hemolytic Streptococcus; details: cited from earlier work
[13] = Dose escalation study, single and multiple doses: PK, safety, tolerability; type: in vivo, healthy adult subjects (human)
Protocol: Dose Escalation Study Using Single- and Multi-Dose FA. The pharmacokinetics (PK), safety, and tolerability of single and multiple doses of CEM-102 (sodium fusidate) were evaluated in a single-center, Phase 1, double-blind, randomized, placebo-controlled, dose-escalating study in 32 healthy adult subjects enrolled in 4 dosage groups (550, 1100, 1650, and 2200 mg). In each cohort, six subjects were to receive CEM-102 and two were to receive placebo in a single dose (Period 1) and then multiple doses BID for a total of 11 doses over 5.5 days (Period 2). The two dosing periods were separated by a seven-day washout period between the single dose in Period 1 and the first dose in Period 2.
Dosing proceeded as planned for Cohorts 1 to 3; however, Cohort 4 received only the single dose of 2200 mg (Period 1), because dose-limiting gastrointestinal intolerance was observed after multiple doses of 1650 mg BID in Cohort 3. Period 2 for Cohort 4 evaluated an initial loading dose regimen, and a second loading dose regimen was evaluated in an additional cohort (Cohort 5) per a protocol amendment.

[14] = Period 1 Day 1, single dose 1650 mg

CC(=O)O[C@H]1C[C@@]2(C)[C@@H](C[C@@H](O)[C@H]3[C@@]4(C)CC[C@@H](O)[C@@H](C)[C@@H]4CC[C@@]32C)/C1=C(\CCC=C(C)C)C(=O)O [FA, fusidic acid]
outcome of treatment ([1]; 600 mg q12h): regrowth and development of resistance by 24 h and 48 h | reduction of bacterial counts ([1]; 1200 mg×2 then 600 mg q12h): ~2 logs | time of rebound ([1]; 1200 mg×2 then 600 mg q12h): 72 h | killing ([1]; 1500 mg×2 then 600 mg q12h): over 2.5 log | resistance suppressed until ([1]; 1500 mg×2 then 600 mg q12h): > 72 h | time of rebound ([1]; 1500 mg×2 then 600 mg q12h): 144 h | MIC [2]: 4 to 8 µg/mL (≈ 7.74 to 15.5 µM) | MIC50 [3]: 0.12 µg/mL (≈ 0.232 µM) | MIC90 [3]: 16 µg/mL (≈ 31 µM) | % at ≤0.5 ([4]; 2001-2002): 95.0% | No. inhibited at MIC 0.06 μg/mL ([4]; 2001-2002): 8 | No. inhibited at MIC […] ([4]; 2001-2002): 29 and 1 | No. inhibited at MIC ≥2 μg/mL ([4]; 2001-2002): 2 | R rate over time ([4]; 2001-2006, breakpoint ≤0.5 μg/ml (S) and ≤2 μg/ml (R)): 5.0-12.2% | % at ≤0.5 ([4]; 2003-2004): 92.9% | MIC50 ([4]; 2003-2004): 0.12 µg/mL (≈ 0.232 µM) | No. inhibited at MIC 0.06 μg/mL ([4]; 2003-2004): 6 | No. inhibited at MIC […] ([4]; 2003-2004): 33 | No. inhibited at MIC ≥2 μg/mL ([4]; 2003-2004): 3 | % at ≤0.5 ([4]; 2005-2006): 87.8% | No. inhibited at MIC 0.06 μg/mL ([4]; 2005-2006): 2 | No. inhibited at MIC […] ([4]; 2005-2006): 32 and 2 | No. inhibited at MIC ≥2 μg/mL ([4]; 2005-2006): 5 | MIC90 ([4]; Staphylococcus aureus, 2003-2004): 0.12 µg/mL (≈ 0.232 µM) | MIC90 ([4]; Staphylococcus aureus, 2005-2006): ≥ 2 µg/mL | MIC90 ([4]; Staphylococcus aureus, overall S. aureus population): 0.25 µg/mL (≈ 0.484 µM) | MIC90 ([4]; Staphylococcus aureus, 2001-2002): 0.12 µg/mL (≈ 0.232 µM) | MIC50 ([4]; Staphylococcus aureus, 2001-2002, read-out: MIC50): 0.12 µg/mL (≈ 0.232 µM) | R rate ([4]; overall S. aureus population): 8.1% | Cmax in plasma at steady state ([5]; 500 mg TID, steady state after the 4th day): 140 µg/mL | Cmax in plasma ([5]; after the first day of treatment, 500 mg TID): around 30 ug/ml | oral bioavailability ([5]; oral): around 98% | MIC values range [6]: 0.06 to 32 µg/mL | MIC [7]: ≥ 2 µg/mL | Protein binding [8]: 95-97% and 96-98% | MIC90 [9]: 0.25 µg/mL (≈ 0.484 µM) | MICs of resistant S. aureus strains ([10]; FA-resistant strains): > 256 µg/mL | actual MIC ([10]; S. aureus, without protein): < 0.25 µg/mL | MIC90 ([10]; S. aureus): 0.12 µg/mL (≈ 0.232 µM) | MIC [11]: 0.25 µg/mL (≈ 0.484 µM) | MIC90 [12]: 4 to 8 µg/mL | MICs ([12]; classified as moderately susceptible): 4-16 micrograms per ml | tmax, median ([13]; Period 1 Day 1, single dose 1100 mg): 3.50 h | T1/2, harmonic mean [13, 14]: 13.9 h | tmax, median [13, 14]: 3.00 h | tmax, median ([13]; Period 2 Day 6, 1100 mg BID): 4.00 h | CL/F, mean ([13]; human, in vivo, 2200 mg): 0.924 L/h | gastrointestinal AEs after single dose ([13]; in vivo): no gastrointestinal AEs were reported | serious or life-threatening adverse events ([13]; in vivo): No serious or life-threatening adverse events (AEs) occurred | tolerability of single doses ([13]; in vivo): well tolerated
